Measured values reported in article PMC6382696, “Drug Repurposing: The Anthelmintics Niclosamide and Nitazoxanide Are Potent TMEM16A Antagonists That Fully Bronchodilate Airways” (Frontiers in Pharmacology, 2019).
“And” between values parts separate entries of the source, which are not always exact repeats. Equal values may be shown once. Read-outs that look alike come from different tables or passages of the source.

Columns and labels:
[1] = tested on: COLO205 cells; assay: QPatch electrophysiology of endogenous calcium-activated chloride current in COLO205 cells; assay type: cell-based, human; conditions: 170 nM free calcium
From the text: HEK293 cells stably expressing the TMEM16A (acd) variant were purchased from SB Drug Discovery. The HEK293 TMEM16A (abc) stable cell line was from ChanTest and COLO-205 cells were purchased from ATCC. The same standard buffers and recording conditions listed below were used for QPatch studies on all three cell lines.
Recording Solutions: were made weekly as below and stored at room temperature until used. It is recommended not to add ATP to internal solution until immediately before using on the QPatch. The external buffer (in mM) was 140 NaCl, 4 KCl, 2 CaCl2, 1 MgCl2, 10 HEPES, 10 Glucose, pH7.4, while the internal buffer (in mM) was 110 CsCl, 20 TEA-Cl, 5.374 CaCl2, 1.75 MgCl2, 10 EGTA, 10 HEPES, 4 Na2ATP, pH 7.2.
Once established in whole-cell configuration, cells were clamped to a holding potential (Vhold) of 0 mV on 48 well single hole patch plate. A standardized IV protocol was used to elicit ionic current through the TMEM16A chloride channel at 20 s intervals. Steady-state voltage pulses were from −100 mV to +100 mV in +20 mV steps for a duration of 500 ms. After each pulse the voltage was returned to −100 mV for 50 ms to obtain tail currents, and then returned to the holding potential of 0 mV until the beginning of the next sweep. Block of TMEM16A chloride current due to test article was measured at the +100 mV depolarization sweep of the third and final IV protocol run per concentration addition. This ensures a minimum of 60 s per concentration incubation before measuring current block. Currents were acquired at 10 kHz and filtered at 2 kHz, leak subtraction and Rseries were disabled. […]
A cumulative concentration response was measured where each cell is exposed to five concentrations of test article with a dilution factor of 1:5 (e.g., 0.048, 0.24, 1.2, 6, and 30 μM). Cells were recorded for ∼60 s per solution/compound addition. […] Recovery/washout was monitored for a final minute with a final external solution addition.
Peak outward current magnitude at 540 ms through 550 ms of the IV step was measured for each sweep at […]. […]

[2] = tested on: human bronchial rings; assay: Wire myograph bronchodilation of histamine pre-contracted human bronchial rings (Biopta)
From the text: Details of bronchodilator studies shown in Figure 5H, 6 and Supplementary Figure 40 are provided below as part of the end assay report on Study CUR011 by Lee Christie (Biopta). Donors with any of the following conditions were excluded from the study: asthma, COPD, emphysema, lung cancer, cystic fibrosis, pulmonary fibrosis, pulmonary hypertension, pneumonia. Donors were also excluded if they had smoked in the past 12 months. Non-transplantable lung tissue was acquired from organ donors post mortem. Any macroscopically diseased/necrotic tissue was rejected. […] Human airway rings were set up under isometric conditions on a wire myograph in order to examine the influence of the test articles on bronchodilation. In order to assess tissue viability, the airways were challenged with carbachol (10 μM) and then isoprenaline (10 μM) to assess their constriction and relaxation responses, respectively. […] Viable airways were pre-constricted with histamine (10 μM), then exposed to one of the following cumulative concentration response curves (CCRCs): positive control, vehicle (water, volume matched to positive control), test article, vehicle (DMSO concentration matched to test articles). At the end of each CCRC, theophylline (2.2 mM) was added to induce maximal relaxation of the tissue. […] Airways were re-tensioned to 1.0 – 1.5 g if the tension had dropped below 1.0 g during the first 30 min of equilibration. (b) Airways were exposed to carbachol (bath concentration 10 μM) in order to measure their contractile responses and then isoprenaline (10 μM) in order to assess their relaxation. Airways were washed out and allowed to return to baseline. (c) Airways were pre-constricted with histamine (10 μM) before conducting a CCRC to the test article, the positive control (isoprenaline), test article vehicle or positive control vehicle.

[3] = tested on: primary human ASM cells; assay: Methacholine-induced calcium flux in primary human ASM cells; assay type: cell-based; conditions: methacholine 10 M (so in the source), read-out: IC50 block of methacholine calcium flux
Protocol: 1.1 Measuring antagonist effects on bronchial smooth muscle cell (BSMC) pro-contractile calcium flux.
Human BSMCs were obtained from Lonza, resuspended, cultured and serum starved for 24 hours as described for the histamine membrane potential assay. Compounds and dilutions were prepared in same manner, except they were serially diluted in Assay Buffer (2 mM CaCl2, 1 mM MgCl2, 4.5 mM KCl, 155 mM NaCl, 5 mM HEPES, 10 mM glucose, pH7.4) to 4X the final concentration. A Calcium Indicator Working Solution (10 ml) was prepared by adding 1ml BD PBX Signal Enhancer (Cat# 51 -9006254) and 10 µl of BD Calcium Indicator (BD Cat# 850000 resuspended in 100% DMSO) to 9 ml Assay Buffer. Following serum starvation of the BSMCs, culture media was aspirated off and 50µl of Calcium Indicator Working Solution was added t o each well of microtiter plate. Twenty-five microliters of the 4X serially diluted compounds were then added and cells were incubated with compounds for 30 minutes at room temperature. Twenty -five microliters of a 4X histamine or methacholine solution (where 1X reflects EC 80-EC100 concentration from earlier validation of aliquot of cells from same donor) was then added and fluorescence changes were measured by a FLIPR-Tetra or internal FlashFluor instrument. In some experiments the TMEM16A opener, Eact, was used in place of histamine or methacholine.

[4] = tested on: mouse tracheal rings; assay: Bronchodilation of mouse tracheal rings at differing levels of carbachol pre-contraction; conditions: EC95 level of carbachol, normalized to theophylline
Protocol: Standard procedures as listed above were used to prepare, mount and Wake-Up tracheal rings and the concentrations of carbachol providing EC25, EC50, EC75, or EC95 levels of contraction for each ring was determined as described above.

[5] = Homo sapiens, 10 μM histamine, read-out: EC50 bronchodilating histamine precontracted human airways
[6] = histamine pre-contracted, 10 μM

| SMILES | block of native chloride current in COLO205 cells [1] | EC50 [2, 5] [µM] | time to steady-state relaxation of human bronchial rings [2, 6] | IC50 [3] [µM] | relaxation of airway rings [4] | EC50 ([2]; histamine pre-contracted, Donor 1 Ring 1, Donor 1 Ring 2, Donor 2 Ring 1, read-out: EC50 relaxation of human bronchial rings, individual rings) | EC50 ([2]; 10 μM histamine, read-out: EC50 bronchodilating histamine precontracted human airways) [µM] | time to steady-state relaxation of human bronchial rings ([2]; histamine pre-contracted, 1 μM) [min] |
| --- | --- | --- | --- | --- | --- | --- | --- | --- |
| N#Cc1c(C(F)(F)F)cc(O)n2c1nc1ccccc12 [1PBC] | fully blocked |  |  |  |  |  |  |  |
| CCc1oc2ccccc2c1C(=O)c1cc(Br)c(O)c(Br)c1 [Benzbromarone] | fully blocked | 5.65 | 80 to 140 min | 7 | roughly 100% |  |  |  |
| CC(C)(C)C1CCc2c(sc(NC(=O)c3ccco3)c2C(=O)O)C1 (stereo not drawn) [CaCCinh-A01] | fully blocked |  |  | 50 |  |  |  |  |
| COc1cc([N+](=O)[O-])ccc1NC(=O)c1cc(Cl)c2ccccc2c1O [Cpd 4] |  | 3.45 | 50 − 125 min |  | roughly 100% | ~1.75 µM and ~6.3 µM and 3 µM |  |  |
| Oc1ccc(Cl)cc1Cc1cc(Cl)ccc1O [Dichlorophen] |  |  |  | 106 |  |  |  |  |
| O=C(Nc1ccc([N+](=O)[O-])cc1Cl)c1cc(Cl)ccc1O [Niclosamide] |  | 0.97 | ~50 min |  | roughly 100% |  | 0.967 | ~92 |
